Results on 18 compounds are retold here after patent US11584737B2, “Heterocyclic compound” (TAKEDA PHARMACEUTICAL COMPANY LIMITED, priority 2018, dated 2023).

The target in the first test is T1, CDK12/CycK complex (Homo sapiens, UniProt Q9NYV4). Put plainly: Measurement of CDK12 inhibitory activity by binding assay (BODIPY-FL labeled AT-7519 high concentration conditions, 1320 nM). Particulars: inhibitory rate against CDK12 at 1 μM test compound, 1320 nM BODIPY-FL-labeled AT-7519, 8 nM CDK12/CycK. How it is done: (4) Measurement of CDK12 Inhibitory Activity by Binding Assay (BODIPY-FL Labeled AT-7519 High Concentration Conditions)
T1 sequence (Q9NYV4 whole entry, species assumed): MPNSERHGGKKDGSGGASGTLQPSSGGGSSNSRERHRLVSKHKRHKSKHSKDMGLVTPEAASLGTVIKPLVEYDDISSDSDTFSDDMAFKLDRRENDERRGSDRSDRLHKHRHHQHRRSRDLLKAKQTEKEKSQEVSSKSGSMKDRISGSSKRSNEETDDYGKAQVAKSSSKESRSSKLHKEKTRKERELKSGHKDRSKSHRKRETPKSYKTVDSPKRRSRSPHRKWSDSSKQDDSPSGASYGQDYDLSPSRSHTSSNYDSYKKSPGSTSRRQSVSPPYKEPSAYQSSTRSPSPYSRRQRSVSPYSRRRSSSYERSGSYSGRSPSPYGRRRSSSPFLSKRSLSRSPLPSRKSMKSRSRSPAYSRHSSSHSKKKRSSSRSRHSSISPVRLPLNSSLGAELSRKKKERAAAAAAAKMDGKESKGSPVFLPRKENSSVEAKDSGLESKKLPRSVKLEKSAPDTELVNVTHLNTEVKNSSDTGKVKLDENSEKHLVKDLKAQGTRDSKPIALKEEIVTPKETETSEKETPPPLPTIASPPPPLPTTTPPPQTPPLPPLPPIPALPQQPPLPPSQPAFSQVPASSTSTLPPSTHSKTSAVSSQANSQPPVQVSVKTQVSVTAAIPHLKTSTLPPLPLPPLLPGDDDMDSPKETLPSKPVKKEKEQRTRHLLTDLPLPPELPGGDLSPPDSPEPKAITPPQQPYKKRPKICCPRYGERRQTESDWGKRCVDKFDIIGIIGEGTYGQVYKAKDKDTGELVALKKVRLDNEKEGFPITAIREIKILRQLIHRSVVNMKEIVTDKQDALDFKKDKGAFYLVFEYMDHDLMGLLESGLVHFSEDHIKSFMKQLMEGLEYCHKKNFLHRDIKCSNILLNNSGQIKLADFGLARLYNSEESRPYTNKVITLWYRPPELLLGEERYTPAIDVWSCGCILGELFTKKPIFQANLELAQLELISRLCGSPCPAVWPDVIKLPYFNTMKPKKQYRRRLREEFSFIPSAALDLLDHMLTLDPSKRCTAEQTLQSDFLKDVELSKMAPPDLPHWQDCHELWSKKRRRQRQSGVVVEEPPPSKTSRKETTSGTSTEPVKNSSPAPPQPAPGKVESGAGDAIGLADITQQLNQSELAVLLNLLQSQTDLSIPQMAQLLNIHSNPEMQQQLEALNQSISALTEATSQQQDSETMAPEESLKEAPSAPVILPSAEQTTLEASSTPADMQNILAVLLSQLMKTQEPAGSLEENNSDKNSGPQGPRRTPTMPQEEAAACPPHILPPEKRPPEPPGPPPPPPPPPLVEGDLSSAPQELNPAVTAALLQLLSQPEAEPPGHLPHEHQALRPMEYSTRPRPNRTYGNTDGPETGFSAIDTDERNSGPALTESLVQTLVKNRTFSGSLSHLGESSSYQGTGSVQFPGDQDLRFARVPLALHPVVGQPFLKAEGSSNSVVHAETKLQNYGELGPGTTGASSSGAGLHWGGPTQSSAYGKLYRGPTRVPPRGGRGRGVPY
T1 sequence (O75909 whole entry partner, species assumed): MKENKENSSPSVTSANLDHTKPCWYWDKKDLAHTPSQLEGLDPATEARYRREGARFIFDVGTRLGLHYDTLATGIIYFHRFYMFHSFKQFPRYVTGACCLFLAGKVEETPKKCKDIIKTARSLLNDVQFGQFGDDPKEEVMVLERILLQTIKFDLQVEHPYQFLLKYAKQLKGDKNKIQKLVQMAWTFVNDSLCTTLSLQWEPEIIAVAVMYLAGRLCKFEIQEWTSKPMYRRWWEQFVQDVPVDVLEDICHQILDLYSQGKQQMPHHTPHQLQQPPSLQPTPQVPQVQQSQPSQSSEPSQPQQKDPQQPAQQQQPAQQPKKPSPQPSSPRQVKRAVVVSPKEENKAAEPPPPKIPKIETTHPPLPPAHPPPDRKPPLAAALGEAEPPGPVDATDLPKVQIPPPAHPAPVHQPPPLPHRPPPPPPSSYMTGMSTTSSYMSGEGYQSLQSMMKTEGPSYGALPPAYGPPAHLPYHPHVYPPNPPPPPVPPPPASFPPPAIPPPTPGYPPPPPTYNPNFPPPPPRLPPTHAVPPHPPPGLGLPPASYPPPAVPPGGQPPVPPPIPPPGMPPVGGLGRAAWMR
(§1) His-tagged CDK12/CycK complex was blended with a binding assay buffer supplemented with BODIPY-FL labeled AT-7519, terbium-labeled streptavidin and biotin-labeled anti-histidine antibody. This solution was added to an assay plate containing a test compound dispensed therein, and the mixture was left standing for 120 min at room temperature. The final concentration of CDK12/CycK complex, BODIPY-FL-labeled AT-7519, terbium-labeled streptavidin and biotin-labeled anti-histidine antibody was set to 8 nM, 1320 nM, 0.2 nM, and 0.4 nM, respectively. The fluorescence intensity derived from terbium and BODIPY-FL was measured using Envision. The signal value of each well was determined using the TR-FRET ratio calculated by the following formula. TR-FRET ratio=(fluorescence value of BODIPY-FL)÷(fluorescence value of terbium)
(§2) The inhibitory rate (%) of the test compound against CDK12 was calculated by the following formula. Inhibitory rate (%)=(1−(TR-FRET ratio of test compound−blank)÷(control−blank))×100
The TR-FRET ratio of the CDK12 enzyme reaction mixture under compound non-addition conditions is indicated as control, and the TR-FRET ratio under 30 μM AT-7519 addition conditions is indicated as blank.
The inhibitory rate of the test compound against CDK12 at 1 μM is shown below.
As a reminder, the inhibition is the change of the read-out against control, counted positive when it falls. `COc1ncc(-c2cnc(N(C(=O)OCCN3CCOCC3)[C@H]3CC[C@H](Nc4ncc(C(F)(F)F)c(-c5cncc(S(C)(=O)=O)c5)n4)CC3)cn2)cn1` [Example 808, 2-(morpholin-4-yl)ethyl (trans-4-((4-(5-(methanesulfonyl)-pyridin-3-yl)-5-(trifluoro-methyl)pyrimidin-2-yl)amino)cyclohexyl) (5-(2-methoxypyrimidin-5-yl)pyrazin-2-yl)carbamate]: the inhibition at 1 µM is 99%. Take `COCC(=O)N(c1cnc(-c2cnn(C)c2)cn1)[C@H]1CC[C@H](Nc2ncc(C(F)(F)F)c(-c3ccn(C(F)F)n3)n2)CC1` [Example 811, N-(trans-4-((4-(1-(difluoromethyl)-1H-pyrazol-3-yl)-5-(trifluoromethyl)pyrimidin-2-yl)amino)cyclohexyl)-2-methoxy-N-(5-(1-methyl-1H-pyrazol-4-yl)pyrazin-2-yl)acetamide]: the inhibition at 1 µM turned out to be 94%. On to `COCC(=O)N(c1cnc(-c2cnn(C)c2)cn1)[C@H]1CC[C@H](Nc2ncc(C(F)(F)F)c(-c3cncc(S(C)(=O)=O)c3)n2)CC1` [Example 812, N-(trans-4-((4-(5-(methanesulfonyl)pyridin-3-yl)-5-(trifluoromethyl)pyrimidin-2-yl)amino)cyclohexyl)-2-methoxy-N-(5-(1-methyl-1H-pyrazol-4-yl)pyrazin-2-yl)acetamide], for which the inhibition at 1 µM turned out to be 95%. As for `CCCC(=O)N(c1cnc(-c2cnn(C)c2)cn1)[C@H]1CC[C@H](Nc2ncc(C(F)(F)F)c(-c3cncc(S(C)(=O)=O)c3)n2)CC1` [Example 814, N-(trans-4-((4-(5-(methanesulfonyl)pyridin-3-yl)-5-(trifluoromethyl)pyrimidin-2-yl)amino)cyclohexyl)-N-(5-(1-methyl-1H-pyrazol-4-yl)pyrazin-2-yl)butanamide], the inhibition at 1 µM was 99%. With `COCCNC(=O)N(c1cnc(-c2cnc(OC)nc2)cn1)[C@H]1CC[C@H](Nc2ncc(C(F)(F)F)c(-c3nn(C(F)F)cc3Cl)n2)CC1` [Example 752, 1-(trans-4-((4-(4-chloro-1-(difluoromethyl)-1H-pyrazol-3-yl)-5-(trifluoromethyl)-pyrimidin-2-yl)amino)cyclo-hexyl)-3-(2-methoxyethyl)-1-(5-(2-methoxypyrimidin-5-yl)pyrazin-2-yl)urea], the inhibition at 1 µM was 90%. The same measure, in the same setting: next, `COCC(=O)N(c1cnc(-c2cnc(OC)nc2)cn1)[C@H]1CC[C@H](Nc2ncc(C(F)(F)F)c(-c3ccn(C(F)F)n3)n2)CC1` [Example 797, N-(trans-4-((4-(1-(difluoro-methyl)-1H-pyrazol-3-yl)-5-(trifluoromethyl)pyrimidin-2-yl)amino)cyclohexyl)-2-methoxy-N-(5-(2-methoxypyrimidin-5-yl)pyrazin-2-yl)acetamide]: 92%; `COc1ncc(-c2cnc(N(C(=O)N3CC(C)(O)C3)[C@H]3CC[C@H](Nc4ncc(C(F)(F)F)c(-c5n[nH]cc5Cl)n4)CC3)cn2)cn1` [Example 746, N-(trans-4-((4-(4-chloro-1H-pyrazol-3-yl)-5-(trifluoro-methyl)pyrimidin-2-yl)-amino)cyclohexyl)-3-hydroxy-N-(5-(2-methoxypyrimidin-5-yl)pyrazin-2-yl)-3-methylazetidine-1-carboxamide]: 91%. Consider `COc1ncc(-c2ccc(N(C(=O)NCC(F)F)[C@H]3CC[C@H](Nc4ncc(C(F)(F)F)c(-c5cncc(S(C)(=O)=O)c5)n4)CC3)nc2)cn1` [Example 741, 3-(2,2-difluoroethyl)-1-(trans-4-((4-(5-(methane-sulfonyl)pyridin-3-yl)-5-(trifluoromethyl)pyrimidin-2-yl)amino)cyclohexyl)-1-(5-(2-methoxypyrimidin-5-yl)pyridin-2-yl)urea], for which the inhibition at 1 µM worked out at 87%. In the case of `COc1ncc(-c2cnc(N(C(=O)NCc3ccccc3)[C@H]3CC[C@H](Nc4ncc(C(F)(F)F)c(OC5(C)COC5)n4)CC3)cn2)cn1` [Example 640, 3-benzyl-1-(5-(2-methoxypyrimidin-5-yl)pyrazin-2-yl)-1-(trans-4-((4-((3-methyloxetan-3-yl)oxy)-5-(trifluoromethyl)pyrimidin-2-yl)amino)cyclohexyl)urea], the inhibition at 1 µM was found to be 105%.

Consider `COCCOC(=O)N(c1cnc(-c2cnc(OC)nc2)cn1)[C@H]1CC[C@H](Nc2ncc(C(F)(F)F)c(-c3cncc(S(C)(=O)=O)c3)n2)CC1` [Example 800, 2-methoxyethyl (trans-4-((4-(5-(methanesulfonyl)pyridin-3-yl)-5-(trifluoromethyl)pyrimidin-2-yl)amino)cyclohexyl) (5-(2-methoxypyrimidin-5-yl)pyrazin-2-yl)carbamate], for which the inhibition at 1 µM amounted to 91%.

Turning to `COCCNC(=O)N(c1cnc(-c2cnn(C)c2)cn1)[C@H]1CC[C@H](Nc2ncc(C(F)(F)F)c(-c3nn(C(F)F)cc3Cl)n2)CC1` [Example 756, 1-(trans-4-((4-(4-chloro-1-(difluoromethyl)-1H-pyrazol-3-yl)-5-(trifluoromethyl)-pyrimidin-2-yl)amino)cyclo-hexyl)-3-(2-methoxyethyl)-1-(5-(1-methyl-1H-pyrazol-4-yl)pyrazin-2-yl)urea], the inhibition at 1 µM was found to be 90%. With `COCC(=O)N(c1cnc(-c2cnc(OC)nc2)cn1)[C@H]1CC[C@H](Nc2ncc(C(F)(F)F)c(-c3n[nH]cc3Cl)n2)CC1` [Example 796, N-(trans-4-((4-(4-chloro-1H-pyrazol-3-yl)-5-(trifluoromethyl)pyrimidin-2-yl)amino)cyclohexyl)-2-methoxy-N-(5-(2-methoxypyrimidin-5-yl)pyrazin-2-yl)acetamide], the inhibition at 1 µM was determined as 95%. For `COc1ncc(-c2cnc(N(C(=O)NCC(F)F)[C@H]3CC[C@H](Nc4ncc(C(F)(F)F)c(-c5n[nH]c(C)c5Cl)n4)CC3)cn2)cn1` [Example 745, 1-(trans-4-((4-(4-chloro-5-methyl-1H-pyrazol-3-yl)-5-(trifluoromethyl)pyrimidin-2-yl)amino)cyclohexyl)-3-(2,2-difluoroethyl)-1-(5-(2-methoxypyrimidin-5-yl)pyrazin-2-yl)urea], the inhibition at 1 µM turned out to be 94%. The same measure, in the same setting: next, `Cn1ccc(-c2cnc(N(C(=O)NCC(F)(F)F)[C@H]3CC[C@H](Nc4ncc(C(F)(F)F)c(-c5ccn(C(F)F)n5)n4)CC3)cn2)cc1=O` [Example 768, 1-(trans-4-((4-(1-(difluoromethyl)-1H-pyrazol-3-yl)-5-(trifluoromethyl)-pyrimidin-2-yl)amino)-cyclohexyl)-1-(5-(1-methyl-2-oxo-1,2-dihydropyridin-4-yl)-pyrazin-2-yl)-3-(2,2,2-trifluoroethyl)urea]: 92%; `COc1ncc(-c2cnc(N(C(=O)NCC(F)F)[C@H]3CC[C@H](Nc4ncc(C(F)(F)F)c(OC5(C)COC5)n4)CC3)cn2)cn1` [Example 777, 3-(2,2-difluoroethyl)-1-(5-(2-methoxypyrimidin-5-yl)pyrazin-2-yl)-1-(trans-4-((4-((3-methyloxetan-3-yl)oxy)-5-(trifluoromethyl)pyrimidin-2-yl)amino)cyclohexyl)urea]: 92%.

The target in another test is T1, CDK12/CycK complex. Briefly: Measurement of CDK12 inhibitory activity by binding assay (TR-FRET, 66 nM BODIPY-FL-labeled AT-7519). Particulars: inhibitory rate against CDK12 at 1 μM test compound, 66 nM BODIPY-FL-labeled AT-7519, 2 nM CDK12/CycK. How it is done:
Experimental Example 1: CDK12 Binding Assay
(3) Measurement of CDK12 Inhibitory Activity by Binding Assay
as §1, with “added to” for “blended with”, “antibody, and the mixture was stood for not less than 60 min at room temperature.” for “antibody.”, “2” for “8”, “66” for “1320”
as §2
The TR-FRET ratio of the CDK12 enzyme reaction mixture under compound non-addition conditions is indicated as control, and the TR-FRET ratio under 3 μM AT-7519 addition conditions is indicated as blank.
The inhibitory rate of the test compound against CDK12 at […] is shown below.
In the case of `Cn1cc(-c2ccc(N(C(=O)NCc3ccccc3)[C@H]3CC[C@H](Nc4ncc(C#N)c(-c5ccc(C#N)s5)n4)CC3)nn2)cn1` [Example 538, 3-benzyl-1-(trans-4-((5-cyano-4-(5-cyano-2-thienyl)pyrimidin-2-yl)amino)cyclohexyl)-1-(6-(1-methyl-1H-pyrazol-4-yl)pyridazin-3-yl)urea], the inhibition at 1 µM worked out at 86%. `Cn1cc(-c2ccc(N(C(=O)NCc3ccccc3)[C@H]3CC[C@H](Nc4ncc(C#N)c(NC5COC5)n4)CC3)cc2)ccc1=O` [Example 483, 3-benzyl-1-(trans-4-((5-cyano-4-(oxetan-3-ylamino)pyrimidin-2-yl)amino)cyclohexyl)-1-(4-(1-methyl-6-oxo-1,6-dihydropyridin-3-yl)phenyl)urea]: the inhibition at 1 µM amounted to 103%. With `Cn1ccc(-c2ccc(N(C(=O)NCc3ccccc3)[C@H]3CC[C@H](Nc4ncc(C#N)c(-c5ccc(C#N)s5)n4)CC3)cn2)cc1=O` [Example 492, 3-benzyl-1-(trans-4-((5-cyano-4-(5-cyano-2-thienyl)pyrimidin-2-yl)amino)cyclohexyl)-1-(1′-methyl-2′-oxo-1′,2′-dihydro-2,4′-bipyridin-5-yl)urea], the inhibition at 1 µM stood at 92%.
